US20190302102A1, “COMBINATION THERAPIES FOR TREATING BIPOLAR DISORDER, AND METHODS FOR USING THE SAME” (PsychNostics, LLC, priority 2016, published 2019)

Columns and labels:
[1] = system: whole blood cells from BD patients; test: MPR™ (Membrane Potential Ratio) test, agents added to the test buffer in vitro; assay type: cell-based, human; settings: 1 mM Li alone in EtOH test buffer, whole blood of BD patients
Experimental: The present inventor developed a ratiometric assay to measure the ratio of the membrane potential called Membrane Potential Ratio (MPR™), using a reference buffer and a test buffer. […] The reference buffer may contain NaCl, CaCl2 and glucose at physiological concentrations. The buffering agent HEPES was also added to the buffer to maintain the pH. […] The test buffer may contain K^+ or no K^+. The membrane potentials were measured in both the buffers and the ratio of the MP in the test buffer to the MP in the reference buffer was designated the “Membrane Potential Ratio” (MPR™).
The membrane potentials of whole blood cells can be measured using two different buffers in a plate reader. The mean MPR™ value is the ratio between the membrane potential of a patient's cells in the test buffer as the numerator and that in the reference buffer as the denominator (for example, determined by statistical analysis of multiple measurements, using the ANOVA and the multiple statistical regression analysis).
As mentioned herein, MPR™ is the ratio between the membrane potential (MP) in the test buffer and that in the reference buffer. In these experiments, the reference buffer contained NaCl, CaCl2, glucose and HEPES, whereas the test buffer contained ethyl alcohol (EtOH) in addition to NaCl, CaCl2, glucose and HEPES. Lithium, inositol and carbachol were added to the test buffer in these experiments.
Whole blood samples were obtained from BD patients, and a portion from each blood sample was suspended in the test buffer for 20 minutes, and a portion from each blood sample was suspended in the reference buffer for 20 minutes. After this incubation, the samples were centrifuged for five minutes, drained, then re-suspended in their respective buffer (test or reference buffer). These samples were then distributed in 96 well plates, and tested in a plate reader (FLx 800 manufactured by BioTek).

BD patients = settings: cited from earlier work
[2] = blood plasma; Freudenreich et al. 2009; cited from earlier work
BD patient = test: Clinical case observation of tolerability (Example 4); assay type: in vivo, human; settings: very low dosage, given for anxiety; person with BD
Source text: At the time of their first blood draw, they reported having been off of their medications for BD for one month, but had not become clinically symptomatic, and tested in the BD range (“(Before)” of FIG. 4). When retested, they had been taking lithium, quetiapine, and mirtazapine for some time and had been back at work. […] Subsequently, they reported anxiety, occurring while they continued taking lithium, quetiapine, and mirtazapine. They thought they might be experiencing a return of bipolar symptomatology, but this was determined to possibly be situational instead. They had some awareness of issues with their fiancé and this awareness was “bolstered” by the notion that their MPR™ test had been in the normal range on their medication regimen not so many months before. […] They wanted a medication to help their through what they were experiencing, but could not be given benzodiazepines because of a history of difficulty with alcohol. Very low dosage perphenazine was given, in keeping with its old indication for neurotic anxiety.

[Li] [Li, lithium]
MPR™ value ([1]; Example 1, FIG. 1): 0.814
MPR™ value ([1]; Example 2, FIG. 2): 0.757
MPR™ value ([1]; Example 3, FIG. 3): 0.780
side effects at the therapeutic level (BD patients; at therapeutic concentration of 1.2 mM): nausea, diarrhea, dizziness, muscle weakness, fatigue, and a dazed feeling
therapeutic level (BD patients; lithium level in BD therapy): around 1.2 mM
toxic level (BD patients; lithium level in BD therapy): about 2 mM

CN1CCN(C2=Nc3cc(Cl)ccc3Nc3ccccc32)CC1 [clozapine]
presently used therapeutic levels [2]: 200 to 1000 ng/mL

OCCN1CCN(CCCN2c3ccccc3Sc3ccc(Cl)cc32)CC1 [perphenazine]
Side effect leading to discontinuation (BD patient): blurred vision
